How the values were obtained:
sclerotia of S. rolfsii = test: Open field experiment in sandy soil; type: in vivo, Sclerotium rolfsii; details: emulsion, 54 ppm active compound, 6 days
Method: In this experiment, an emulsions of trans-2-octenal (25% active compound) such as those described in Example 9 were used. The soil was inoculated with chlamydospores of Forl and sclerotia of S. rolfsii. Five gram of soil, highly inoculated with chlamydospores were wrapped in nylon tights and buried in the field at depths of 10, 30, and 50 cm. Tea bags containing 50 S. rolfsii sclerotia were prepared as described above and buried similarly. After 6 days, trans-2-octenal emulsion, at concentration of 54 ppm (active compound) was applied using the irrigation system. The same conditions were applied to a control plot except that the plot was irrigated with tap water without the compound. The plots were left open during the time of the experiment. After 6 days, the pathogens were removed from the soil and their viability was examined using PDA+tet culture plates. […] As shown in these figures, elimination of both phytopathogenic fungi occurred at the lowest depth of 10 cm.

tomato seedlings = test: Phytotoxicity: growth of tomato seedlings in treated sandy soil in pots; type: in vivo; details: soil treated with 54 ppm, nine days
Method: (§1) Sandy soil from a plot that was treated with 54 ppm of trans-2-octenal was removed to small pots in which either seeds of corn, cotton, and peanut were sown (FIGS. 16A-16C) or tomato seedlings were planted therein (FIG. 16E).

[1] = test system: seeds of corn, cotton, and peanut; test: Phytotoxicity: seed germination in treated sandy soil in pots; type: in vivo; details: soil treated with 54 ppm, nine days
Method: as §1

A. alternata = test: Fungicidal activity assay on PDA in sealed Petri dish (growth inhibition and mortality); type: cell-based, Alternaria alternata; details: Alternaria alternata, NA + number = still viable in the highest concentration tested (given as >), read-out: M - Mortality, minimal concentration that killed the fungus
Method: In exemplary procedures, the fungicidial activity of the compounds listed in Table 2 were examined by activity assays as follow: Petri dishes, 90 mm in diameter, with air volume of 80 mL, contained 10-12 mL of growth medium comprising potato dextrose agar (PDA) (Acumedia, Lansing, Michigan, USA) amended with tetracycline at 12 μg/mL. Each compound was placed on a disconnected cover from an Eppendorf tube that was located in the middle of the Petri dish and a hyphae-containing plug of each test fungus was added to the culture plate. In exemplary procedures, the tested compounds trans-2-heptenal, trans-2-octenal were tested in comparison with octanal, trans-2-octen-1-ol, methyl trans-2-octenoate, trans-3-octen-2-one and 3-pentenenitrile. In addition, cyclic ketones as 2-cyclopenten-1-one, 2-cyclohexen-1-one and α-tetralone were also examined. Then, the culture plate was sealed with parafilm and incubated at room-temperature for 2 days, after which the growth of the test fungi in those dishes was compared with those in the test compound-free control dishes. At the end of the assay, the viability of each test fungus was evaluated by transferring inoculum plugs to fresh PDA plates and observing the growth that developed within the next 2 days. The test fungi used in this study included but were not limited to Alternaria alternata, Botrytis cinerea, Sclerotinia rolfsii, Penicillium digitatum, Fusarium oxysporum f. sp. radicis-cucumerinum and Rhizoctonia solani.

R. solani = test: microbe, parasite or virus in culture; type: cell-based; details: Rhizoctonia solani; R. solani; NA + number = still viable in the highest concentration tested (given as >); read-out: M - Mortality, minimal concentration that killed the fungus
[2] = test system: Sclerotium rolfsii sclerotia; test: Effect on Sclerotium rolfsii sclerotia buried in buckets; type: in vivo
Method: The activity of trans-2-octenal was examined against phytopathogenic fungi and weeds. The experiment was performed in large buckets (110 L), which bottoms were removed, and therefore the loam in the bucket was continuous with the ground. The soil was inoculated one day prior the application of the compound. Soil inoculation was performed as follows: spores of Fusarium oxysporum […]-cucumerinum (FORC) were collected from culture plates and 25 mL of spore suspension at concentration of 9×10^5 was mixed with 10 L of tap water and then poured on the soil of each bucket. […] Half of the buckets were sealed with nylon while the other half remained open. Five days later, soil samples from three different depths (10, 20, and 30 cm) were taken from each bucket for fungal isolation and determination of fungal survival. […] After 3 days, the number of colonies was counted. […] Similar experiment was carried out with Sclerotium rolfsii as the phytopathogen fungus. The experiment was performed as above with the following modifications: 50 sclerotia of S. rolfsii were inserted into paper tea-bags and warped with nylon tights. Each bucket contained 9 tea-bags, 3 for each depth of 10, 20, and 30 cm. After burying the tea bags, the soil was watered with 10 L of tap water. […] Hyphal growth was detected after 2 days incubation at 25° C.

test fungi = test: Fungicidal activity assay on PDA, summaries over the test fungi; type: cell-based; details: over the fungi tested
tomato strain Ikram = details: in vivo, 11 days
Method: An experiment in a larger scale was performed in loam soil in which the seedling were planted directly in the treated plot. The soil was treated with 0, 25, 50, 100, 200, 400, 800, and 1,600 ppm of emulsion of trans-2-octenal. The compound was applied using the irrigation system. A day later, tomato seedling strains Ikram and Abigail and lettuce seedling strain Raviv (10 seedlings each) were planted into the treated soil of each concentration. Eleven days later, the number of viable seedlings was counted.

CCCCC/C=C/C=O [trans-2-octenal]
viability of S. rolfsii sclerotia (sclerotia of S. rolfsii; 30 and 50 cm depth): No elimination | viability of S. rolfsii sclerotia (sclerotia of S. rolfsii; depth 10 cm, open plot): elimination | growth of the tomato seedling in treated versus untreated soil (tomato seedlings): no significant difference | number of seeds germinated in treated versus untreated soil [1]: did not differ significantly | MFC (A. alternata): 12.5 µg/mL | MFC (R. solani): 6.25 µg/mL | viability of sclerotia ([2]; depth 10 cm, open and close conditions, 125-250 ppm): reduced significantly | effect on viability of sclerotia ([2]; depth 30 cm, close conditions only, 250 ppm): significant effect | concentrations that completely inhibited the fungi growth and killed the fungi (test fungi): 6.25-50 ppm | concentration at which phytotoxic effect was displayed (tomato strain Ikram): 800 ppm
